This passage reports IC50 results from publication PMC6272348, “Four New Pentasaccharide Resin Glycosides from Ipomoea cairica with Strong α-Glucosidase Inhibitory Activity” (Molecules, 2015).

The target of the test is α-glucosidase. The test can be described thus: α-glucosidase inhibition assay (PNPG substrate). The class given is biochemical. The note with it: pH 6.8, 37 °C, 10 min, 0.01 M PNPG substrate, 1 U/mL enzyme; means ± SD of three independent replicates; read-out: α-Glucosidase Inhibition Contstant (IC50). On the procedure: The a-glucosidase inhibition assay was performed according to a slightly modified method of Pierre et al.. α-Glucosidase was purchased from Sigma (San Francisco, CA, USA, No. M0035-15). The inhibition was measured spectrophotometrically at pH 6.8 and at 37 °C for 10 min, using 0.01 M p-nitrophenyl a-D-glucopyranoside (PNPG) from Sigma (No. M0103) as a substrate and 1 U/mL of enzyme, in 0.067 M KH2PO4-Na2HPO4 buffer. […] The increment in absorption at 410 nm due to the hydrolysis of PNPG by α-glucosidase was monitored continuously with an automatic multi-functional microplate reader.

Molecules are shown by their SMILES.

On to `CCCCCC1CCCCCCCCCC(=O)OC2C(OC(C)C(OC3OC(C)C(OC4OC(C)C(OC(=O)C(C)CC)C(OC(=O)C=Cc5ccccc5)C4O)C(OC4OC(C)C(O)C(O)C4O)C3OC(=O)CCC)C2O)OC2C(O1)OC(CO)C(O)C2O` (stereo not shown) [Compound 2, Cairicoside II], for which the IC50 is 26.2 ± 4.6 µM.
As to `CCCCCCCC(=O)OC1C(OC2C(C)OC3OC4C(OC(CCCCC)CCCCCCCCCC(=O)OC3C2O)OC(CO)C(O)C4O)OC(C)C(OC2OC(C)C(OC(=O)C(C)CC)C(OC(=O)C=Cc3ccccc3)C2O)C1OC1OC(C)C(O)C(O)C1O` (stereo not shown) [Compound 3, Cairicoside III], the IC50 was 30.4 ± 3.9 µM.
`CCCCCC1CCCCCCCCCC(=O)OC2C(OC(C)C(OC3OC(C)C(OC4OC(C)C(OC(=O)C(C)CC)C(OC(=O)C=Cc5ccccc5)C4O)C(OC4OC(C)C(O)C(O)C4O)C3OC(=O)C(C)CC)C2O)OC2C(O1)OC(CO)C(O)C2O` [Compound 1, (S)-jalapinolic acid 11-O-α-L-rhamnopyranosyl-(1→3)-O-[3-O-trans-cinnamoyl-4-O-(S)-2-methyl-butyryl-α-L-rhamnopyranosyl-(1→4)]-O-[2-O-(S)-2-methylbutyryl]-α-L-rhamnopyranosyl-(1→4)-O-α-L-rhamnopyranosyl-(1→2)-O-β-D-glucopyranoside, intramolecular 1,2''-ester]: the IC50 was 21.4 ± 2.9 µM.
For `CCCCCCCCCC(=O)OC1C(OC2C(C)OC3OC4C(OC(CCCCC)CCCCCCCCCC(=O)OC3C2O)OC(CO)C(O)C4O)OC(C)C(OC2OC(C)C(OC(=O)C(C)CC)C(OC(=O)C=Cc3ccccc3)C2O)C1OC1OC(C)C(O)C(O)C1O` (stereo not shown) [Compound 4, Cairicoside IV] the value was 28.9 ± 1.4 µM.

The term IC50 denotes the midpoint of a concentration-inhibition curve.
